Assay results: US20120083599A1 (UNIVERSITY OF NOTTINGHAM, priority 2009, published 2012)
Like-named read-outs stand apart in the source and are kept apart here.

What was measured:
avidin [1] = biological target: T1, avidin (Gallus gallus, UniProt P02701); test: Binding to avidin after click chemistry attachment of a fluorophore (native gel)
Experimental: 2) With protein (avidin) present: 0.29 mL 2-azidiobiotin solution (3.5 mM in Buffer A) was diluted in 0.71 mL Buffer A, then 1 mL avidin solution (0.21 mM) was added. The mixed solution was put in a shaker (25° C., 100 rpm) for 1 h. Then 0.5 mL alkynyl tag solution (10 mM in dioxane), 0.5 mL CuSO4-TTA solution (10 mM in ^tBuOH:H2O (4:1) solvents), 0.2 mL TCEP.HCl solution (50 mM in H2O), 0.5 mL NaHCO3 solution (200 mM in H2O), 0.25 mL ^tBuOH, 1 mL H2O were added to the reaction mixture. The mixture was put on the shaker (25° C., 100 rpm) for 2 h, then stored at 4° C. Buffer A: pH 7.4 20 mM phosphate, 150 mM NaCl buffer.

biotin ligase (BirA) = biotin ligase (BirA) (Escherichia coli, UniProt P06709); test: Addition to acceptor peptide using BirA biotin ligase (HPLC); type: biochemical, E. coli; details: for Substrate for BirA: biotin ligase (BirA) from E. coli
Chain of biotin ligase (BirA) (P06709 whole entry): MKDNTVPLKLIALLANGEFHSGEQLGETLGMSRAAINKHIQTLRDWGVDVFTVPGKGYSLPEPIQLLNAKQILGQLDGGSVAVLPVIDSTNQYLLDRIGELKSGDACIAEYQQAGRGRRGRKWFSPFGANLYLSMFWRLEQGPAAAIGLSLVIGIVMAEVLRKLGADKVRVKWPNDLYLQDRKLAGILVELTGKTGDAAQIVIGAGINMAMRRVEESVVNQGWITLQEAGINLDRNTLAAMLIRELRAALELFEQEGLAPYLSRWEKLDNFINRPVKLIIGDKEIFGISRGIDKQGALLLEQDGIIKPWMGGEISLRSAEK

avidin [2] = biological target: T1, avidin; test: Binding affinity for avidin by isothermal titration calorimetry
other biotin ligases = details: cited from earlier work
biotin ligase [3] = biological target: T2, biotin ligase (Saccharomyces cerevisiae, UniProt P48445); details: cited from earlier work
T2 sequence (P48445 1-690): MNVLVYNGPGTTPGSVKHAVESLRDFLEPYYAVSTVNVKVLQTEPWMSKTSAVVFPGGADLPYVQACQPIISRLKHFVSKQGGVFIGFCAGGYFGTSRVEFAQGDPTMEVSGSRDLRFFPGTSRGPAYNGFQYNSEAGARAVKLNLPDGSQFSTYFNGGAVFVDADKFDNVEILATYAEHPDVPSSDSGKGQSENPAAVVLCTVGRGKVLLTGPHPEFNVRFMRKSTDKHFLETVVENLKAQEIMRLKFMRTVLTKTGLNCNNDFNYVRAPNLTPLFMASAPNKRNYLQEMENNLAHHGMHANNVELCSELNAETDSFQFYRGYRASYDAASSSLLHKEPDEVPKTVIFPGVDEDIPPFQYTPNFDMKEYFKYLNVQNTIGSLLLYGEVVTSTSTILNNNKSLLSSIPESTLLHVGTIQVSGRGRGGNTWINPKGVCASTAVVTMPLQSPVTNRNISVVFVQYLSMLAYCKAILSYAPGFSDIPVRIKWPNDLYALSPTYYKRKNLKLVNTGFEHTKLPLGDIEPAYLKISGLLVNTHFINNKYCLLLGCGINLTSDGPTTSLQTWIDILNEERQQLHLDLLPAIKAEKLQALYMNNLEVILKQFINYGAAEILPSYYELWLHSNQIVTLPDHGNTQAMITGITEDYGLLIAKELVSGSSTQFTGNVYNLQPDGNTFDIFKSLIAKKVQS

biotin ligase [4] = details: cited from earlier work
BirA = BirA (Escherichia coli, UniProt P06709); details: cited from earlier work
Chain of BirA (P06709 whole entry): as the sequence (P06709 whole entry) above

T1 sequence (P02701 25-152, species assumed): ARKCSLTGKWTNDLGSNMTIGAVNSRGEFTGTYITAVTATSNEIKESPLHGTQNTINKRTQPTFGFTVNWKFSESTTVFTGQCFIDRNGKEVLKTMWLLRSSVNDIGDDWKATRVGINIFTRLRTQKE

## 6-Azidodesthiobiotin
Avidin [1]
  Binds to avidin once covalently modified: No
Biotin ligase (BirA)
  Substrate for BirA: not substrates
Biotin ligase (BirA); listed as E 6-azido-desthiobiotin
  Substrate for BirA: No
Avidin [2]
  Affinity for avidin (in words): low affinities
  Binds to avidin: Very weak

## 8-Azidodesthiobiotin
Avidin [1]
  Binds to avidin once covalently modified: No
Other biotin ligases
  Substrate for other biotin ligases: Yes
Biotin ligase (BirA)
  Substrate for BirA: not substrates
Biotin ligase (BirA); listed as D 8-azido-desthiobiotin
  Substrate for BirA: No
Avidin [2]
  Affinity for avidin (in words): low affinities
  Binds to avidin: Very weak

## [N-]=[N+]=NC(CCC[C@@H]1SC[C@@H]2NC(=O)N[C@@H]21)C(=O)O (stereo partly shown) [2-azidobiotin]
Avidin [1]
  Binds to avidin once covalently modified: able to binded to avidin
Avidin [1]; listed as 2 Azidobiotin
  Binds to avidin once covalently modified: Yes
Biotin ligase (BirA); HPLC, 30 C, 1 h
  Level of conversion to acceptor peptide adduct by BirA, compared with biotin: very similar to that of biotin
Biotin ligase (BirA)
  Substrate for BirA: Yes
Avidin [2]
  Affinity for avidin (in words): moderate-good affinity
  Binds to avidin: Yes
Avidin [2]; ITC, pH 7.4, 20 mM phosphate, 150 mM NaCl
  Kd: ~100 nM

## O=C(O)CCCC[C@@H]1SC[C@@H]2NC(=O)N[C@@H]21 [biotin]
Other biotin ligases
  Substrate for other biotin ligases: Yes
Biotin ligase (BirA)
  Substrate for BirA: Yes
Avidin [2]
  Binds to avidin: Yes

## C#CCN1C(=O)N[C@H]2CS[C@@H](CCCCC(=O)O)[C@H]21 [cis-propargyl biotin]
Biotin ligase [3]
  Substrate of Saccharomyces cerevisiae biotin ligase: could utilise
Avidin [1]
  Binds to avidin once covalently modified: No
Other biotin ligases
  Substrate for other biotin ligases: Yes
Biotin ligase (BirA)
  Substrate for BirA: No
Biotin ligase [4]
  Substrate of Pyrococcus horikoshii biotin ligase: could use
Avidin [2]
  Binds to avidin: No/very weak

## C[C@@H]1NC(=O)N[C@@H]1CCCCCC(=O)O [desthiobiotin]
Biotin ligase [4]
  Substrate of Pyrococcus horikoshii biotin ligase: could use

## O=C(O)CCCC[C@@H]1SC[C@@H]2CC(=O)C[C@@H]21 [ketone biotin, Ketone biotin]
BirA
  BirA ligation yield (product inhibition): ~50%
Avidin [1]
  Binds to avidin once covalently modified: No
Biotin ligase (BirA)
  Substrate for BirA: Yes
